Series [1] relates to platelet-poor plasma (PPP).
Description: For all measurements, peptide stocks in 1× DPBS were prepared such that the final concentrations (v/v) in blood or plasma were 1:10, 1:100, 1:500,1:1000, 1:5000, 1:10,000, and 1:20,000 (peptide/fluid volume). Controls with collagen as a procoagulant initial platelet-adhesive surface (0.095 mg mL^−1 or 1:240 dilution) or with calcium chelated by sodium citrate utilized 1× DPBS as a vehicle to ensure consistent blood dilution in all experiments. Peptide stocks, whole human blood, isolated RBCs, and PPP were warmed to 37 °C immediately prior to use. Plate reader measurements were conducted on an EnSpire Multimode Plate Reader with 96-well tissue culture plates (TCP).
PPP was isolated from citrated whole human blood through two rounds of centrifugation at 2000 × g for 10 min and collection of the upper two-third layer. Briefly, 100 µL of PPP, 50 µL of peptide stock or additive (4× final concentration), and 50 µL of CaCl2 (50 mM) were mixed and added to a 96-well plate and incubated at 37 °C for kinetics measurements. For each sample, n = 6 repeats were conducted. Coagulation profiles were obtained by measuring well absorbance at 405 nm at 30 s intervals for 60 min. Onset to clotting was detected as a sharp increase in sample turbidity.
Series [2] deals with red blood cells (RBCs). Kind of series: Hemolysis assay of red blood cells. It is filed as cell-based. The conditions noted are these: positive control at 1%, defines 100% hemolysis; human RBCs, 1 h, 37 °C; mean of n = 4. The protocol:
RBCs were isolated by centrifugation of 40 mL citrated whole human blood at 500 × g for 5 min, followed by gentle washes with 150 mM NaCl (×1) and 1× DPBS (×3). Isolated RBCs were diluted 1:50 into 1× DPBS (pH 7.4) and lightly agitated to prevent settling. Briefly, 190 µL of dilute RBCs and 10 µL of peptide stock or additive (20× final concentration) were mixed and added to a 96-well plate (n = 4 repeats), covered, and incubated at 37 °C for 1 h. Plates were centrifuged at 500 × g to pellet intact RBCs using a centrifuge equipped with a microplate rotor. Supernatant (100 µL) was transferred to a new 96-well plate, taking care not to disturb the pellet. Absorbance of the supernatant was measured at 540 nm to detect released hemoglobin. To calculate % hemolysis, absorbances were corrected for background absorbance from untreated vehicle and then normalized to 1% Triton X-100-treated RBCs to represent 100% hemolysis. %Hemolysis was calculated according to the following equation:2 %Hemolysis=Absexperiemental-Absnegativecontrol/Abspositivecontrol-Absnegativecontrol×100, where Absexperiemental is the average well absorbance pertaining to RBCs pertaining to the additive sample being analyzed, Absnegative control is the average well absorbance for RBCs incubated with vehicle (1× DPBS), and Abspositive control is the average well absorbance for RBCs containing 1% Triton X-100. […]

The target in series [3] is T1, thermolysin (Bacillus thermoproteolyticus, UniProt P00800).
T1 construct: purchased Promega V4001
T1 sequence (P00800 233-548): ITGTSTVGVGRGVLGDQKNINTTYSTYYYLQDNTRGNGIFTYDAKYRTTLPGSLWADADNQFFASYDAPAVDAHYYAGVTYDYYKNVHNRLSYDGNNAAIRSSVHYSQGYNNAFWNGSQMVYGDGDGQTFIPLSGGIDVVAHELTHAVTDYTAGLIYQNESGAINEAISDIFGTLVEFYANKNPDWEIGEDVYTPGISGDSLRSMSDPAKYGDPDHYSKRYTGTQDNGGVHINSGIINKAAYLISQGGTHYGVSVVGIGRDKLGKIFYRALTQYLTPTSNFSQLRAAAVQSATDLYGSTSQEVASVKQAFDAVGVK
Kind of series: Time course rheology of thermolysin-induced bulk gelation and gel stability. It is filed as in vitro ADME. The settings on record: 10 mM in 1× DPBS pH 7.4, thermolysin 1:4500, 37 °C, continuous rheological measurement. How it is done: All peptide samples were prepared at 10 mM peptide, except for those used to assess the effect of SAP functionalization with respect to weight (15 mg mL^−1). Viscous and viscoelastic properties were assessed using a stress-controlled rheometer (TA Instruments AR-G2) equipped with a Peltier plate to control temperature and a 20 mm diameter parallel plate geometry. Unless otherwise stated all measurements were taken at an angular frequency of 2.5 rad s^−1, strain of 0.5%, and temperature of 37 °C. Measurements were performed with a gap height of 1000 µm and repeated three times (except for step-strain and time course measurements) to ensure reproducibility. To prevent water evaporation, mineral oil was wrapped around the edge of the geometry at the air–sample interface. For viscoelastic measurements the apparatus was used in oscillatory mode. […] The dynamic moduli of the hydrogels were measured as a function of frequency in the range 0.25–100 rad s^−1 at a strain of 0.5%. Continuous step-strain oscillations were used to monitor hydrogel healing through disruption (3 min, 100% strain) and recovery (15 min, 0.5% strain) cycles (n = 3). For viscosity measurements the apparatus was used in steady-state flow mode. The viscosity of the samples was measured as a function of shear rate in the range 0.1–10 s^−1 (5% tolerance). […]

Bridge positions count the residues as written; N and C are the ends. Peptide text beside a SMILES is read from it.

Turning to collagen, the “Pro-thrombotic profile in PPP” value in series [1] is “lack of change in pro-thrombotic profiles”.
For the molecule Triton X-100, in series [2], the “%Hemolysis” value came out at 100.00%.
On to `CC(C)C[C@@H]1NC(=O)CNC(=O)[C@H](CC(C)C)NC(=O)[C@@H]2CCCN2C(=O)[C@H](CC(C)C)NC(=O)[C@H](CC(=O)O)NC(=O)[C@H](CC(C)C)NC(=O)[C@H](CCCCN)NC(=O)[C@H](CC(C)C)NC(=O)[C@H](CC(=O)O)NC(=O)[C@H](CC(C)C)NC(=O)[C@H](CCCCN)NC(=O)[C@H](CC(C)C)NC(=O)[C@H](CC(=O)O)NC(=O)[C@H](CC(C)C)NC(=O)[C@H](CCCCN)NC(=O)[C@@H](N)CSSC[C@@H](C(N)=O)NC(=O)CNC(=O)[C@H](C)NC1=O` [KLDLCyclic] (H-CKLDLKLDLKLDLPLGLAGC-NH2; disulfide 1-20), for which the “Stability of viscoelastic properties of resulting gel in the presence of thermolysin” value in series [3] is recorded as “no change for up to 3 days”.

For the origin of these results see publication PMC6465301, “Enzyme-responsive progelator cyclic peptides for minimally invasive delivery to the heart post-myocardial infarction” (Nature Communications, 2019).
